Measurements published in ChEMBL document CHEMBL1141891, “Crystallographic determination of stereochemistry of biologically active 2'',3''-dibromo-7-epi-10-deacetylcephalomannine” (Bioorg Med Chem Lett, 2005).
Converted amounts (≈) assume the structure as drawn.

Experiments:
Assay type in all cases: functional, cell-based
A2780 = assay: Inhibitory concentration against A2780 proliferation after 72 hr; settings: Homo sapiens, A2780, 72 h
MCF7 = assay: Inhibitory concentration required to inhibit MCF-7 Cell line growth on continuous exposure time of 72 h; settings: Homo sapiens, MCF7, 72 h
A549 = assay: Inhibitory concentration required to inhibit A549 Cell line growth on continuous exposure time of 72 h; settings: Homo sapiens, A549, 72 h

In the case of `CC(=O)O[C@H]1C(=O)[C@@]2(C)[C@H]([C@H](OC(=O)c3ccccc3)[C@]3(O)C[C@H](OC(=O)[C@H](O)[C@@H](NC(=O)c4ccccc4)c4ccccc4)C(C)=C1C3(C)C)[C@]1(OC(C)=O)CO[C@@H]1C[C@@H]2O` [PACLITAXEL], the IC50 (A2780) is reported as 6.76 ng/mL (≈ 7.92 nM).

For `CC(=O)O[C@@]12CO[C@@H]1C[C@@H](O)[C@@]1(C)C(=O)[C@H](O)C3=C(C)[C@@H](OC(=O)[C@H](O)[C@@H](NC(=O)[C@](C)(Br)[C@@H](C)Br)c4ccccc4)C[C@@](O)([C@@H](OC(=O)c4ccccc4)C12)C3(C)C` (some centres not stated), the IC50 (MCF7) was 7.1 ng/mL (≈ 7.48 nM), the IC50 (A549) was 26.9 ng/mL (≈ 28.3 nM) and the IC50 (A2780) was 4.84 ng/mL (≈ 5.1 nM).

Work on `CC(=O)O[C@@]12CO[C@@H]1C[C@@H](O)[C@@]1(C)C(=O)[C@H](O)C3=C(C)[C@@H](OC(=O)[C@H](O)[C@@H](NC(=O)[C@@](C)(Br)[C@H](C)Br)c4ccccc4)C[C@@](O)([C@@H](OC(=O)c4ccccc4)C12)C3(C)C` (some centres not stated) yielded an IC50 (MCF7) of 4.75 ng/mL (≈ 5 nM), an IC50 (A549) of 13 ng/mL (≈ 13.7 nM) and an IC50 (A2780) of 2.13 ng/mL (≈ 2.24 nM).
